Laboratory results published in a melting point compilation (Tetko et al.; mined from patent text by program, amines drawn as free bases though some values may be those of a salt).

| melting point [°C] | Structure (SMILES) |
| --- | --- |
| 124 to 125 | O=C(OCC(O)CO)C(=O)c1ccc(OCCOc2ccc3ccccc3c2)cc1 (centres undefined) |
| 88 to 89 | CC1CCCCN1C(=O)C=Cc1ccc(C(F)(F)F)cc1 (centres undefined) |
| 123 to 128 | Cc1oncc1C(=O)Nc1ccc(N)cc1 |
| 97.9 | COCCOc1ccc(O)cc1 |
| 173 | O=C(NC1CCn2c(CCc3ccccc3)nc3cccc1c32)c1ccccn1 (centres undefined) |
| 106 to 107 | C=CCNc1nc(NC(C)C)c2scc(C)c2n1 |
| 108 to 110 | Cc1cccc(C(=O)NC(C)(C(N)=S)C(C)C)c1 (centres undefined) |
| 159 to 161 | COc1ccc(-c2cc(C)cn2-c2ccc(S(C)(=O)=O)cc2)cc1 |
| 248 to 250 | C#CCn1c(=O)c(C(F)(F)F)cc2cc(F)c(-n3c(=O)cc(C(F)(F)F)n(C)c3=O)cc21 |
| 259 | NS(=O)(=O)c1cccc(NC(=O)c2cnn3c(C(F)(F)F)cc(-c4ccc(C(F)(F)F)c(F)c4)nc23)c1 |
| 105 to 106 | C#CCn1c(I)cc(C(O)C(C)(C)C)c(C)c1=O (centres undefined) |
| 256 to 257 | N#Cc1ccc2nc3c(c(=O)n2c1)CSC3 |
| 143 to 145 | CC[C@H]1CN(c2c(F)cc3c(=O)c(C(=O)O)cn([C@@H]4C[C@@H]4F)c3c2OC)C[C@H]1NC |
| 110 to 114 | COc1ccc(C(=O)C(C)NC(=O)C(F)(F)F)cc1 (centres undefined) |
| 80.5 to 83.5 | C=C=COc1ccc2ccc(OC=C=C)cc2c1 |
| 165 to 168 | CCn1nc(C(=O)OC)cc1C |
| 198 to 200 | COc1ccc([C@@H]2Sc3cc(Oc4ccc(F)cc4)ccc3NC(=O)[C@@H]2O)cc1 |
| 255 to 257 | CC(=O)NC[C@H]1CN(c2ccc(C(=O)c3cc(C#N)c4ccccn34)cc2)C(=O)O1 |
| 216 to 217 | CCc1nn2ccccc2c1-c1n[nH]c(=O)cc1C |
| 64 to 65 | CC(C)(C)C(=O)c1ccc(CSCc2ccc(C(=O)C(C)(C)C)cc2)cc1 |
| 108 to 110 | N#CCCSCc1nccc(NC(=S)NCC(F)(F)F)n1 |
| 147 to 148 | CC(C)(NC(=O)CCNC(=O)c1ccccc1)c1ccccc1 |
| 106 to 108 | CCc1ccc(-c2ccc(C(=O)c3ccccc3)cc2)cc1 |
| 156 to 157 | O=C(O)CCCN(C(=O)c1cccc(C(F)(F)F)c1)c1ccccc1-c1ccccc1 |
| 180 to 182 | CS(=O)(=O)c1ccc(-c2cnn(-c3ccc(F)cc3)c(=O)c2Cc2ccccc2)cc1 |
| > 270 | NS(=O)(=O)c1cc2c(s1)SCCNC2=O |

Second part, the compound before the results:

| Structure (SMILES) | melting point [°C] |
| --- | --- |
| CCC1(CC)NC(=O)C(CC)(CC)N1OC(C)(C)C#N | 125 to 130 |
| FC(F)(F)C(c1ccccc1)(c1ccccc1)c1ccccc1 | 158 to 159 |
| CCCn1c(=O)c2c(nc(/C=C/c3ccc(OCOC)c(OCOC)c3)n2C)n(CCC)c1=O | 172 to 173 |
| CCCCCCCCc1ccc(-c2ncc(OCC(C)OC(=O)CCCCCC)cn2)cc1 (centres undefined) | 33 to 34.3 |
| CC(C)(C)c1ccc(C(=O)Nc2cn3cc(Cl)ccc3n2)cc1 | 250 to 251 |
| CCCN(CCC)[C@@H]1Cc2c(-c3ncco3)ccc3c2[C@H](CN3)C1 | 103 to 104 |
| COC(=O)c1cc2cc(OCCn3ccnc3)ccc2s1 | 127 to 129 |
| CCSc1nc(=O)[nH]cc1F | 168 |
| CCCCc1nc2ccccn2c1Cc1ccc(-c2ccccc2C(=O)O)cc1 | 196 |
| CS(=O)(=O)c1ccc(-n2cnc(Cl)c2-c2ccccc2)cc1 | 145 to 146 |
| NC(=O)C1(O)c2ccccc2S(=O)(=O)N1Cc1ccc(Br)cc1 (centres undefined) | 166 to 168 |
| CCOC(=O)NN=C(c1ccccc1)c1ccncc1 | 189 |
| O=c1nc(-c2c[nH]c3ccccc23)sc2ccccc12 | 276 to 277 |
| COC(=O)CCC(=NOCc1ccc(OCCc2nc(-c3ccccc3)oc2C)cc1)c1ccccc1 | 73 to 74 |
| CCN(CC)C(=O)c1ccoc1-c1ccc(C=O)cc1 | 64 to 66 |
| COc1cccc(NC(=O)c2ccc(C)cc2)c1C(C)=O | 48 |
| CCN1C(=O)C(C)(C)C(=O)N(C)c2cc(CN(CCn3ccc4oc(C)cc4c3=O)c3cccc4ncccc34)ccc21 | 166 to 168 |
| CCOC(=O)c1ncc2[nH]c3ccc(Oc4ccc(Br)cn4)cc3c2c1COC | 210 to 212 |
| CNC(=S)C1(c2ccccn2)CCCO1 (centres undefined) | 115 |
| CCCCCCCCCCCCC#CC(F)(CCCCC(=O)O)CCCCC(=O)O | 98 to 100 |
| O=C(Nc1ccccc1)c1ccc(O)c(Nc2ccccc2)c1 | 158 to 159 |
| CCOC(=O)c1c(C)nc2c(cnn2CC)c1NCCC(C)O (centres undefined) | 94.5 to 96.5 |
| Cc1ccc(-c2cccn2-c2ccc(S(C)(=O)=O)cc2)cc1 | 186 to 187 |
| CCc1cc(C)cc(CC)c1C1C(=O)C2CC(COc3nc(C)c(C)s3)CC2C1=O (centres undefined) | 73 to 74 |

| Structure (SMILES) | melting point [°C] |
| --- | --- |
| COc1ccc(CCNc2nc(N)c3nc(-c4ccco4)oc3n2)cc1OC | 155 to 158 |
| CC(=O)NCc1ccc(CN2CCN(c3ccc([N+](=O)[O-])cc3)CC2)cc1 | 152 to 154 |
| CC(=O)Nc1ccc(S(=O)(=O)N(CCCl)CCCl)cc1 | 113 to 114 |
| CC1(C)c2ccccc2Oc2ncccc21 | 72 to 73 |
| O=c1[nH]c(-c2c[nH]c3ccccc23)nc2ccc(N3CCOCC3)cc12 | > 300 |
| NNC1=NCCCCN1 | 133 to 135 |
| CC(=O)C(C)(C)Nc1nc(N)nc(O)c1[N+](=O)[O-] | 289 |
| O=C(Nc1ccc2c(c1)C(=O)NC2=O)C(=O)N1CCC(Cc2ccccc2)CC1 | 239 to 241 |
| CCOC(=O)c1cn(C2COC2)c2c(F)c(F)c(F)cc2c1=O | 146 to 147 |
| CCCCCCCCCCNc1ccc(C(=O)Nc2cc(C(=O)NCCSC)ccc2OC)cc1 | 100 to 104 |
| COc1cccc(-c2cn3c(ccc4ccccc43)n2)c1 | 129 to 131 |
| FC(F)(F)COc1nc(NCc2ccc(C(F)(F)F)cc2)nc(Nc2ccc3cc[nH]c3c2)n1 | 119 to 121 |
| C=CCC(Cc1ccc(Cl)c(Cl)c1)NC(=O)c1cc(C)cc(C)c1 (centres undefined) | 155 to 157 |
| CN1CCN(c2ncc(-c3cnc4c(c3)N(Cc3c(F)ccc(F)c3Cl)CCN4)cn2)CC1 | 194 to 195 |
| CN1CCC(OC(=O)c2ccccc2Nc2ccnc3cc(C(F)(F)F)ccc23)CC1 | 116 |
| CC(=O)N1CCC(CCc2ccc(N(C)C)cc2)CC1 | 49 to 51 |
| COC(=O)C=Cc1ccc(C(C)(C)C)cc1 | 35 |
| COC(=O)CC(=O)CC(O)/C=C/c1c(-c2ccc(F)cc2)n(C(C)C)c(=O)c2ccccc12 (centres undefined) | 147 to 149 |
| CON(C)Cc1nc2cnc3ccccc3c2n1CC1CCOCC1 | 142 to 144 |
| O=Cc1ccc2c(n1)COC(c1ccccc1)O2 (centres undefined) | 110 to 114 |
| COc1cc2c(cc1OC)C(=O)C(=Cc1cc(Cl)cc(Cl)c1)C2 | 227 |
| COC(=O)C(NCc1cn(Cc2ccccc2)c2ccccc12)c1ccccc1 (racemic) | 72 to 75 |
| CC(=O)Nc1ccc(C(C)=O)cc1CN(C)C | 68 to 72 |
| O=C(Oc1ccccc1)N1CCC(Sc2ccccc2F)CC1 | 58 to 60 |
